Data: US8426447B2, “Spiro-tricyclic ring compounds as beta-secretase modulators and methods of use” (Amgen Inc., priority 2008, dated 2013)
Each block holds one molecule with its values, some of them ahead of it.

Legend:
BACE1 [1] = biological target: T1, BACE1 (Homo sapiens, UniProt P56817); experiment: In Vitro BACE Cell-based Assay (HEK cell assay): Aβ40 in conditioned medium of cells stably expressing Amyloid Precursor Protein, sandwich ELISA
Description: In Vitro BACE Cell-based Assay
The cell-based assay measures inhibition or reduction of Aβ40 in conditioned medium of test compound treated cells expressing amyloid precursor protein.
Cells stably expressing Amyloid Precursor Protein (APP) were plated at a density of 40K cells/well in 96 well plates (Costar). The cells were cultivated for 24 hours at 37° C. and 5% CO2 in DMEM supplemented with 10% FBS. The test compounds were then added to cells in 10-point dose response concentrations with the starting concentration being either 100 μM or 10 μM. The compounds were diluted from stock solutions in DMSO and the final DMSO concentration of the test compounds on cells was 0.1%. After 24 h of incubation with the test compounds the supernatant conditioned media was collected and the Aβ 40 levels were determined using a sandwich ELISA. The IC50 of the compound was calculated from the percent of control or percent inhibition of Aβ 40 as a function of the concentration of the test compound.
The sandwich ELISA to detect Aβ 40 was performed in 96 well microtiter plates, which were pre-treated with goat anti-rabbit IgG (Pierce). The capture and detecting antibody pair that were used to detect Aβ 40 from cell supernatants were affinity purified pAb40 (Biosource) and biotinylated 6E10 (Signet Labs Inc.), respectively. The optimal concentration for the pAb40 antibody was 3 μg/ml in Superblock/TBS (Pierce) that was supplemented with 0.05% Tween 20 (Sigma).
Cellular supernatants were incubated with the capture antibody for 3 h at 4° C., followed by 3 wash steps in TBS-tween (0.05%). The detecting antibody incubation was for 2 h at 4° C., again followed by the wash steps as described previously. The final readout of the ELISA is Time-Resolved Fluorescence (counts per minute) using Delfia reagents Streptavidin-Europium and Enhancement solutions (Perkin Elmer) and the Victor 2 multilabel counter (Perkin Elmer).

BACE1 [2] = biological target: T1, BACE1; experiment: In Vitro Enzymatic BACE FRET (Fluorescence Resonance Energy Transfer) Assay; assay type: biochemical
Method in brief: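 Run in 0.05 M acetate pH 4.2 with 10% DMSO final and 100 uM genapol detergent below its CMC. Reaction was started with 50 nM FRET peptide substrate (fluorophore and quencher flanking the BACE cleavage site), incubated one hour, stopped with Tris to neutral pH, and fluorescence read.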

[3] = HEK cells, read-out: HEK cell assay
[4] = Table IV, class symbols, read-out: HEK cell assay
[5] = Table IV, class symbols, read-out: BACE1 FRET assay
[6] = HEK cell-based assay, Aβ40 in conditioned medium, IC50 class symbols, read-out: HEK cell assay
[7] = in vitro BACE FRET enzyme assay, IC50 class symbols, read-out: BACE1 FRET assay
[8] = Table III, IC50's in uM ranges, read-out: HEK cell assay
[9] = Table III, IC50's in uM ranges, read-out: BACE1 FRET assay
[10] = Table II, Aβ40, 24 h incubation, read-out: HEK cell assay
[11] = Table II, read-out: BACE1 FRET assay

T1 sequence (P56817 46-501, species assumed): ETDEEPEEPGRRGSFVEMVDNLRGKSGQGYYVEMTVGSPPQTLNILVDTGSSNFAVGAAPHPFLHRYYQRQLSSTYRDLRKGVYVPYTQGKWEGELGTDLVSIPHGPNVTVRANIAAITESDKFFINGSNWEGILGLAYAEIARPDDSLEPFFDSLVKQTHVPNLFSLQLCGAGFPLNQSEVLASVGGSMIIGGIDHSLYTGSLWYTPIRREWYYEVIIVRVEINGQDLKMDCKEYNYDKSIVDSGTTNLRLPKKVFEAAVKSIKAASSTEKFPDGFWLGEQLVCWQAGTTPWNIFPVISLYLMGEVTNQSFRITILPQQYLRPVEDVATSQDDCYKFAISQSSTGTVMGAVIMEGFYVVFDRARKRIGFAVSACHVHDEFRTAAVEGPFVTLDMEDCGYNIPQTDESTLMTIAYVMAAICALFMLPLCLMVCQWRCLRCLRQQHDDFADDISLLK

IC50 (BACE1 [1]; [3]): < 0.1 µM
IC50 (BACE1 [2]; read-out: BACE1 FRET assay): < 0.1 µM
Structure (SMILES): CC1(C)C=C(c2cc3c(cn2)Oc2ccc(-c4cccnc4)cc2[C@@]32COC(N)=N2)CCO1 [compound 437, (5S)-3-(6,6-dimethyl-3,6-dihydro-2H-pyran-4-yl)-7-(3-pyridinyl)spiro[chromeno[2,3-c]pyridine-5,4′-[1,3]oxazol]-2′-amine]

IC50 (BACE1 [1]; read-out: HEK cell assay): 0.1 to 1 µM
IC50 (BACE1 [2]; read-out: BACE1 FRET assay): < 0.1 µM
Structure (SMILES): CC(C)(C)COc1ccc2c(c1)[C@]1(COC(N)=N1)c1cc(-c3csc(C(F)F)c3)ccc1O2 [compound 737]

IC50 (BACE1 [1]; read-out: HEK cell assay): 1 to 5 µM
IC50 (BACE1 [2]; read-out: BACE1 FRET assay): 0.1 to 1 µM
Structure (SMILES): CNCc1ccc(-c2ccc3c(c2)[C@]2(COC(N)=N2)c2cc(OCC(C)(C)C)ccc2O3)cc1 [compound 784]

IC50 (BACE1 [1]; [3]): 0.1 to 1 µM
IC50 (BACE1 [2]; read-out: BACE1 FRET assay): 0.1 to 1 µM
Structure (SMILES): NC1=N[C@]2(CO1)c1cc(-c3cncnc3)ccc1Oc1cccnc12 [compound 527]

IC50 (BACE1 [1]; read-out: HEK cell assay): > 5 µM
IC50 (BACE1 [2]; read-out: BACE1 FRET assay): 0.1 to 1 µM
Structure (SMILES): NC1=N[C@]2(CO1)c1cc(/C=C/C(=O)O)ccc1Oc1ccc(-c3cncnc3)cc12 [compound 948]

IC50 (BACE1 [1]; [3]): < 0.1 µM
IC50 (BACE1 [2]; read-out: BACE1 FRET assay): < 0.1 µM
Structure (SMILES): NC1=N[C@]2(CO1)c1cc(C3=CCOCC3)ccc1Oc1cnc(-c3cccnc3F)cc12 [compound 497]

IC50 (BACE1 [1]; HEK cell assay (uM), HEK cells): < 0.1 µM
IC50 (BACE1 [2]; BACE1 FRET assay (uM)): < 0.1 µM
Structure (SMILES): Cc1cc(-c2cc3c(cn2)Oc2ccc(-c4cccnc4F)cc2[C@@]32COC(N)=N2)ccn1 [compound 429]

IC50 (BACE1 [1]; [4]): 0.1 to 1 µM
IC50 (BACE1 [2]; [5]): < 0.1 µM
Structure (SMILES): CC(C)(C)COc1ccc2c(c1)[C@]1(COC(N)=N1)c1cc(-c3cccnc3Cl)ccc1O2 [compound 913]

IC50 (BACE1 [1]; [4]): < 0.1 µM
IC50 (BACE1 [2]; [5]): < 0.1 µM
Structure (SMILES): COc1ccc(-c2ccc3c(c2)[C@]2(COC(N)=N2)c2cc(-c4cncnc4)ccc2O3)cc1 [compound 892]

IC50 (BACE1 [1]; [6]): 0.1 to 1 µM
IC50 (BACE1 [2]; [7]): 0.1 to 1 µM
Structure (SMILES): NC1=N[C@@]2(CO1)c1cc(-c3cccnc3)ccc1Oc1ccc(N3CCOCC3)nc12 [compound 334]

IC50 (BACE1 [1]; [3]): < 0.1 µM
IC50 (BACE1 [2]; read-out: BACE1 FRET assay): < 0.1 µM
Structure (SMILES): CC(C)(C)COc1cnc2c(c1)[C@]1(COC(N)=N1)c1cc(-c3ccc(F)nc3)ccc1O2 [compound 470]

IC50 (BACE1 [1]; [8]): 1 to 5 µM
IC50 (BACE1 [2]; [9]): 0.1 to 1 µM
Structure (SMILES): NC1=N[C@@]2(CO1)c1cc(-c3cccnc3)ccc1Oc1ncc(-c3cccnc3)cc12 [compound 203]

IC50 (BACE1 [1]; [8]): > 5 µM
IC50 (BACE1 [2]; [9]): 1 to 5 µM
Structure (SMILES): CC(C)(O)C#Cc1ccc2c(c1)[C@@]1(COC(N)=N1)c1cc(Br)cnc1O2 [compound 173]

IC50 (BACE1 [1]; [6]): 0.1 to 1 µM
IC50 (BACE1 [2]; [7]): < 0.1 µM
Structure (SMILES): Cn1cc(-c2cccc(-c3ccc4c(c3)[C@@]3(COC(N)=N3)c3cc(-c5cnn(C)c5)ncc3O4)c2)cn1 [compound 328]

IC50 (BACE1 [1]; [8]): < 0.1 µM
IC50 (BACE1 [2]; [9]): < 0.1 µM
Structure (SMILES): COC(C)(C)C#Cc1ccc2c(c1)[C@]1(COC(N)=N1)c1cc(-c3cccnc3)cnc1O2 [208b]

IC50 (BACE1 [1]; [4]): 1 to 5 µM
IC50 (BACE1 [2]; [5]): 0.1 to 1 µM
Structure (SMILES): Cc1cccc(-c2ccc3c(c2)[C@]2(COC(N)=N2)c2cccnc2O3)c1 [compound 596]

IC50 (BACE1 [1]; [6]): < 0.1 µM
IC50 (BACE1 [2]; [7]): < 0.1 µM
Structure (SMILES): CC1(COc2cnc3c(c2)[C@]2(COC(N)=N2)c2cc(-c4cccc(F)c4F)ccc2O3)COC1 [compound 413]

IC50 (BACE1 [1]; [10]): > 5 µM
IC50 (BACE1 [2]; [11]): 0.1 to 1 µM
Structure (SMILES): NC1=N[C@@]2(CS1)c1cc(Cl)ccc1Oc1ccc(-c3cncnc3)cc12 [Example 39, (4R)-2′-chloro-7′-(5-pyrimidinyl)spiro[1,3-thiazole-4,9′-xanthen]-2-amine]

IC50 (BACE1 [1]; [10]): 0.1 to 1 µM
IC50 (BACE1 [2]; [11]): < 0.1 µM
Structure (SMILES): CC(C)(C)COc1ccc2c(c1)[C@]1(COC(N)=N1)c1cc(C#CC3CC3)cnc1O2 [compound 45]

IC50 (BACE1 [1]; [8]): < 0.1 µM
IC50 (BACE1 [2]; [9]): < 0.1 µM
Structure (SMILES): CC(C)(O)C#Cc1ccc2c(c1)[C@]1(COC(N)=N1)c1cc(-c3cccnc3)ccc1O2 [151a]

IC50 (BACE1 [1]; read-out: HEK cell assay): < 0.1 µM
IC50 (BACE1 [2]; read-out: BACE1 FRET assay): < 0.1 µM
Structure (SMILES): COC(=O)c1ccc(-c2ccc3c(c2)[C@]2(COC(N)=N2)c2cc(-c4cccnc4)ccc2O3)s1 [compound 722]

IC50 (BACE1 [1]; [4]): > 5 µM
IC50 (BACE1 [2]; [5]): > 5 µM
Structure (SMILES): COc1ccc2c(c1)[C@]1(COC(N)=N1)c1cc(C#CC(C)(C)O)cnc1O2 [compound 903]

IC50 (BACE1 [1]; read-out: HEK cell assay): < 0.1 µM
IC50 (BACE1 [2]; read-out: BACE1 FRET assay): < 0.1 µM
Structure (SMILES): CC(C)(C)C#Cc1cnc2c(c1)[C@]1(COC(N)=N1)c1cc(-c3ccc(F)nc3)ccc1O2 [compound 766]
